Data reported in patent US6894038B2, “Use of biogenic estriol diester prodrugs for the treatment of autoimmune diseases” (Schering Aktiengesellschaft, priority 2002, dated 2005).

Assays:
[1] = Heithecker et al., 1991; cited from earlier work
[2] = tested on: experimental autoimmune encephalomyelitis (EAE); conditions: levels equal to those found in pregnancy; Kim et al. 1999, Jansson et al. 1994; cited from earlier work
[3] = tested on: CD4+ lymphocytes of MS patients; conditions: concentrations at a similar level as in pregnancy; Correale et al. 1998; cited from earlier work
[4] = administered orally; cited from earlier work
[5] = oral, 12 mg/day; Lindsay et al. 1979; cited from earlier work
Lewis rat EAE model = assay: Lewis rat acute EAE model, clinical score; type: in vivo; conditions: female Lewis rats, 1000 ug/rat s.c. on day 1 and day 15; chronic stage of disease; ANOVA vs vehicle p≦0.028; FIG. 1

SMILES	half-life [1] [h]	amelioration of disease (EAE) [2]	secretion of anti-inflammatory cytokine IL-10 [3]	bioavailability [4]	osteoprotective effects [5]	clinical score (EAE) (Lewis rat EAE model)
C[C@]12CC[C@@H]3c4ccc(O)cc4CC[C@H]3[C@@H]1C[C@@H](O)[C@@H]2O [estriol]	1.5 to 5.3	capable of ameliorating disease	stimulated	low	not able to show the osteoprotective effects	–
CCCCCC(=O)Oc1ccc2c(c1)CC[C@@H]1[C@@H]2CC[C@@]2(C)[C@H]1C[C@@H](O)[C@@H]2OC(=O)CCCCC [3,17β-di-n-hexanoyloxy-1,3,5(10)-estratriene-16α-ol]	–	–	–	–	–	efficacious in lowering the clinical score
